# Laboratory results reported in BindingDB's records for doi:10.1021/jm00168a028 (University of Minnesota, 1990).
# Where a SMILES comes first, the peptide text is derived from it. [ ]: non-standard residue; d: D form. The star is where a group is joined. Tyr(Nα,Nα-allyl2) = C=CCN(CC=C)[C@@H](Cc1ccc(O)cc1)C(=O)*; Aib = CC(C)(N)C(=O)O
# Experiments:
# [1] = Binding affinity was measured by the displacement of [3H]- DADLE in guinea pig brain membrane of opioid receptor delta
# [2] = Binding affinity was measured by the displacement of [3H]- DADLE in guinea pig brain membrane of Opioid receptor delta 1
# [3] = as above; remark: listed apart in the source
Structure (SMILES),Ki [1] [µM],Ki [2] [µM],Ki [3] [µM]
"COc1ccc2c3c1O[C@H]1c4[nH]c5ccccc5c4C[C@@]4(O)[C@@H](C2)N(CC2CC2)CC[C@]314 [22-cyclopropylmethyl-16-methoxy-(2S,13R)-14-oxa-11,22-diazaheptacyclo[13.9.1.01,13.02,21.04,12.05,10.019,25]pentacosa-4(12),5(10),6,8,15(25),16,18-heptaen-2-ol(HCl1.5H2O)]",0.04,0.04,
CN1CC[C@]23c4c5ccc(O)c4O[C@H]2c2[nH]c4ccccc4c2C[C@@]3(O)[C@H]1C5,,0.0007,
"C=CCN(CC=C)[C@@H](Cc1ccc(O)cc1)C(=O)NC(C)(C)C(=O)NC(C)(C)C(=O)N[C@@H](Cc1ccccc1)C(=O)N[C@@H](CC(C)C)C(=O)O [ICI-174864] ({Tyr(Nα,Nα-allyl2)}-[Aib][Aib]FL-OH)",,,0.035
